Test results published in paper PMC12281142, “A potent phenylalkylamine disrupts mycobacterial membrane bioenergetics and augments bactericidal activity of bedaquiline” (iScience, 2025).
Converted amounts (≈) assume the structure as drawn. “And” between values parts separate entries of the source, which are not always exact repeats. Equal entries are not always repeated. Where two headings read alike, the source gives them in different places.

What was measured:
[1] = system: Mab bolletii CCUG 50184-T; experiment: MIC against Mab bolletii CCUG 50184-T; format: cell-based, Mycobacterium abscessus subsp. bolletii; details: Mycobacteroides abscessus; for MIC50: CCUG50184, 72 h, 3 days
[2] = system: Mab massiliense CCUG 48898-T; experiment: MIC against Mab massiliense CCUG 48898-T; format: cell-based, Mycobacterium abscessus subsp. massiliense; details: Mycobacteroides abscessus; for MIC50: CCUG48898, 72 h, 3 days
M. bovis BCG [3] = experiment: microbe, parasite or virus in culture; format: cell-based, Mycobacterium bovis BCG; details: Mycobacterium tuberculosis variant bovis BCG, BCG
Mab complex = experiment: MIC against Mab complex (summary over the 3 subspecies); format: cell-based, Mycobacterium abscessus; details: Mycobacteroides abscessus; range over subspecies
M. bovis BCG [4] = format: cell-based, Mycobacterium bovis BCG; details: 2XMIC90BCG (1.1 mM, 500 μg/mL)
HepG2 = experiment: Cytotoxicity in HepG2 cells; format: cell-based, human; details: Homo sapiens, HepG2; 48 h, growth suppressed by 50% vs untreated
Procedure: (§1) To each well in a 96-well plate, 50,000 cells in 100 μL media were seeded. Vero E6 and HepG2 cells were incubated overnight in DMEM for cell adherence at 37°C and 5% CO2. The media was removed from the wells and 100 μL solution made up of fresh DMEM media (99 μL) and the test compound (1 μL from a DMSO stock solution that was […] more concentrated than the final concentration in the well) was then added to each well. DMSO content of each well was consistently kept at 0.5 %v/v. Treated plates were incubated for 48 h (5% CO2, 37°C), after which 10 μL of Celltitre 96 Aqueous One Solution was added to each well, without removal of media, and incubated for a further 3 h. Subsequently, absorbance readings were taken at 490 nm on a Tecan GENios Microplate Reader.
(§2) Cell viability was determined from the expression: Cellviability(%)={[Absorbance(cells+cpd)−Absorbance(cpd)]/[Absorbance(cells+vc)−Absorbance(vc)]}×100% where Absorbance (cells + cpd) = absorbance of wells containing cells and test compound in vehicle (media +0.5% DMSO); Absorbance (cpd) = absorbance of wells containing test compound in vehicle without cells (compound control); Absorbance (cells + vc) = absorbance of wells containing cells in vehicle (vc) only (untreated cells); Absorbance (vc) = absorbance of wells containing vehicle without cells (vehicle control). The percentage viability readings were plotted against log(concentration) on GraphPad Prism (Version 7.0, San Diego, CA) to give a sigmoidal curve, from which IC50, defined as the concentration of the compound that reduced cell viability by 50%, was obtained. At least 3 separate determinations were carried out.

mycobacterial growth = details: cited from earlier work
Vero E6 = experiment: Cytotoxicity in Vero E6 cells; format: cell-based, African green monkey; details: Chlorocebus sabaeus, Vero C1008, 48 h, growth suppressed by 50% vs untreated
Procedure: as §1, §2

[5] = system: nonreplicating M. bovis BCG; format: cell-based, Mycobacterium bovis BCG; details: 4x MIC90BCG, 5 days, Wayne model
cat papillary muscle = details: cited from earlier work
Mtb H37Rv = experiment: MIC by broth microdilution against Mtb H37Rv; format: cell-based, Mycobacterium tuberculosis; details: Mycobacterium tuberculosis, H37RV
M. bovis BCG [6] = format: cell-based, Mycobacterium bovis BCG; details: 2x MIC90BCG, 6 h time point, cultures still viable
Mab abscessus ATCC 19977 = experiment: MIC against Mab abscessus ATCC 19977; format: cell-based, Mycobacterium abscessus subsp. abscessus; details: Mycobacteroides abscessus; for MIC50: ATCC19977, 72 h, 3 days
[7] = 7H9 medium (first value of cell)
[8] = CA-MHB medium (second value of cell)

## COc1ccc(CCN(C)CCCC(C#N)(c2ccc(OC)c(OC)c2)C(C)C)cc1OC (stereo not drawn) [VP, verapamil, reference compound]
[1]; CCUG50184, 7H9 broth (first value)
  MIC90: 2200 µM (≈ 1000 µg/mL)
[1]; [7]
  MIC50: 1450 µM (≈ 659 µg/mL)
[1]; [8]
  MIC50: 1250 µM (≈ 568 µg/mL)
[1]; CCUG50184, camH broth (second value)
  MIC90: > 2500 µM
[2]; CCUG48898, 7H9 broth (first value)
  MIC90: 2250 µM (≈ 1020 µg/mL)
[2]; [7]
  MIC50: 1100 µM (≈ 500 µg/mL)
[2]; [8]
  MIC50: 1150 µM (≈ 523 µg/mL)
[2]; CCUG48898, camH broth (second value)
  MIC90: > 2500 µM
M. bovis BCG [3]; 120 h, read-out: MIC50 BCG With Glycerol, 7H9 broth with glycerol, 5 days
  MIC50: 210 µM
M. bovis BCG [3]; 120 h, read-out: MIC50 BCG Without Glycerol, 7H9 broth without glycerol, 5 days
  MIC50: 450 µM
M. bovis BCG [3]; M. bovis BCG, broth dilution, growth reduced by 50% vs untreated
  MIC50: 210 µM
M. bovis BCG [3]; M. bovis BCG, broth dilution, growth reduced by 90% vs untreated
  MIC90: 550 µM
M. bovis BCG [3]; read-out: MIC50 BCG, 7H9 with glycerol
  MIC50: 96 µg/mL
M. bovis BCG [3]; read-out: MIC50 BCG, 7H9 without glycerol
  MIC50: 205 µg/mL
M. bovis BCG [3]; read-out: MIC90 (Table S1), M. bovis BCG, broth dilution
  MIC90: 550 µM
M. bovis BCG [3]; read-out: MIC90 BCG, M. bovis BCG
  MIC90: 250 µg/mL
Mab complex
  MIC50: 500 to 564 µg/mL (≈ 1100 to 1240 µM)
M. bovis BCG [4]
  time to reduce the CFU count to the detection limit: 14 days
HepG2
  IC50: 504 µM
Mycobacterial growth
  concentration to inhibit mycobacterial growth: ~500 μM and ~227 μg/mL
Vero E6
  IC50: 543 µM
[5]
  kill of hypoxic M. bovis BCG: 10^2 fold
Cat papillary muscle
  ED50 (concentration to reduce maximal contractility of the papillary muscle by 50%): 3.5 µM
Mtb H37Rv; 120 h, read-out: MIC50 Mtb H37Rv
  MIC50: 241 µM
Mtb H37Rv; 120 h, second value of cell MIC50/MIC90, incubation 5 days, read-out: MIC90 Mtb H37Rv
  MIC90: 540 µM
Mtb H37Rv; read-out: MIC50 Mtb
  MIC50: 110 µg/mL
Mtb H37Rv; read-out: MIC90 Mtb
  MIC90: 246 µg/mL
M. bovis BCG [6]
  membrane depolarization: depolarization was evident
Mab abscessus ATCC 19977; ATCC19977, 7H9 broth (first value), read-out: MIC90 Mab abscessus ATCC 19977
  MIC90: 2400 µM (≈ 1090 µg/mL)
Mab abscessus ATCC 19977; [7]
  MIC50: 1290 µM (≈ 586 µg/mL)
Mab abscessus ATCC 19977; [8]
  MIC50: 1200 µM (≈ 546 µg/mL)
Mab abscessus ATCC 19977; ATCC19977, Mab abscessus, read-out: MIC90 abscessus
  MIC90: 2400 µM and 1100 µg/mL
Mab abscessus ATCC 19977; ATCC19977, camH broth (second value), read-out: MIC90 Mab abscessus ATCC 19977
  MIC90: > 2500 µM
